Columns and labels:
[1] = test system: E. coli K1 strain UTI89; test: Secondary assay 2: T7 phage-mediated lysis assay; type: cell-based, Escherichia coli; conditions: n = 2, read-out: T7 phage IC50
Excerpt: D. Secondary Assay 2: Screening for Inhibitors of Bacterial Capsule Biogenesis—T7 Lysis Inhibition
Purpose: This secondary assay measures the compound mechanistic specificity for inhibition of bacterial capsule formation and excludes inhibitors of phage replication using a different bacteriophage (T7). In this assay, an increase in phage-induced lysis correlates to a decrease in capsule formation.
Purpose: This secondary assay measures the compound mechanistic specificity for inhibition of bacterial capsule formation using a different bacterial phage (T7). In this assay, an increase in phage-induced lysis correlates to a decrease in capsule formation.
Assay Description: T7 phage-mediated lysis assay: This assay determined if the mechanism of action of the compound is inhibition of phage infectivity or replication. The T7 phage has a nearly identical genome to K1F, without encoding an endosialidase. Its cycle of replication is similar to that of K1F as well. However, T7 entry into E. coli is inhibited by K capsules. This secondary assay was conducted in the 96 well plate format. […] Compounds were added in quadruplicate to plates in a concentration dependent manner in the range of 100-0.39 μM, followed by addition of 100 μL of bacterial culture. 1% DMSO (final well concentration) was included. The plates were tape sealed and shaken vigorously for 1.5 hr. An initial OD600 reading was measured to identify compounds that cause growth retardation or bacterial killing in the absence of phage. Next, T7 phage (5 μL) was added to all of the test wells. The plates were resealed and shaken vigorously at 37° C., and measurements of OD600 for phage-mediated lysis were taken after 3 hr. True inhibitors of capsule yielded bacteria that were susceptible to T7 phage and lysed within 2 hr of the addition of phage. […] The positive control drug C7 (100 μM final well concentration) was used in this screen.
T7 phage counter assay. This secondary assay was performed as previously described and was used to distinguish compounds with phage inhibitory effects from true polysaccharide capsule inhibitors. […] Thus, the presence of a capsule inhibits T7-mediated lysis. In this assay, an increase in phage-induced lysis correlates to a decrease in capsule formation. True inhibitors of capsule yielded bacteria that were susceptible to T7 phage and lysed within 2 hr of the addition of phage. […] The positive control molecule C7 (100 μM final well concentration) was used in this screen.

[2] = test system: Bladder carcinoma 5637 cells; test: Cytotoxicity counterscreen, CellTiter Glo, 72 hr; type: cell-based, human
Method: B. Counterscreen: Cytotoxicity Screening for Potential Inhibitors of Bacterial Capsule Biogenesis.
Purpose: This cell-based assay measures the cytotoxicity of compounds in bladder carcinoma 5637 cells using luminescent cell viability assay readout.
Cytotoxicity assay: The cytotoxicity assay was performed as described in Section 6: Appendix. Hit cytotoxicity and the 50% toxic concentration (CC50) was determined and compared to the IC50 to calculate the selectivity index.
Assay Description: Cytotoxicity: Dose response testing (dose range=300-0.58 μM) established the hit cytotoxicity data. Compounds were plated in 384-well microplates in a stacked dose response format using the same doses used in the efficacy dose response. Bladder carcinoma 5637 cells were added to the compounds, and 72 hr later cell viability was measured using CellTiter Glo (38). Hit cytotoxicity and the 50% toxic concentration (TC50) was determined and compared to the IC50 to calculate the therapeutic index. Test compounds are serially diluted in a plate to plate matrix or stacked plate matrix. All 320 compounds in a source plate are diluted together resulting in a 10 point dose response dilution series. It is visualized as a serial dilution series proceeding vertically through a stack of plates with the high dose plate on top and the low dose plate on the bottom.
Control Drug: Hyamine was used as a positive cytotoxic control. All wells contained 0.5% DMSO.
Preparation of Bladder carcinoma 5637 cells: Cells are harvested and resuspended to 80,000 cells per ml in Complete DMEM/F12®.
Endpoint Read: Following the three day incubation period, the assay plates were equilibrated to room temperature for 30 min and an equal volume (30 μL) of Cell Titer-Glo® reagent (Promega Inc.) is added to each well using a WellMate™ (Matrix, Hudson, N.H.) and plates are incubated for an additional 10 min at room temperature. At the end of the incubation, luminescence is measured using a Perkin Elmer Envision™ multi-label reader (PerkinElmer, Wellesley, Mass.) with an integration time of 0.1 s.
Cytotoxicity. Testing was performed essentially as previously described. Concentration-response testing was performed over a range 0.58-300 μM in a […] well plate format. Bladder carcinoma 5637 cells (ATCC HTB-9) were added to the compounds, and 72 hrs later cell viability was measured using CellTiter Glo (Promega). The 50% toxic concentration (TC50) was determined and compared to the IC50 to calculate the therapeutic index. Hyamine was used as a positive cytotoxic control. All wells contained 0.5% DMSO.

[3] = test system: E. coli K1 strain UTI89; test: microbe, parasite or virus in culture; conditions: read-out: K1 phage IC50, n = 3
Excerpt: The ability of the […] to bind to bacterial capsule, infect, and lyse E. coli UT189 was used as the primary assay to identify the effects of screened compounds on bacterial capsule formation. The phenotypic end-point assay measured the fluorescence generated by cellular processing of Alamar Blue as a direct indicator of cell viability. A total of […] compounds were screened using the primary assay. […] Hits were further evaluated using […] secondary assays for alternative measurement of compound-induced reduction in bacterial capsule formation (secondary assays 1 and 2) and specificity (secondary assays 3 and 4). Confirmed actives with an SI>5 were further investigated and subjected to chemical optimization, followed by secondary assay evaluation. Secondary assays more closely characterized the ability of the compounds to reduce bacterial capsule formation and can be used to examine the mechanism of action of the compounds. The combination of primary assay (to measure capsule reduction), counter assay (for general eukaryotic cell toxicity) and secondary assay (to measure reduction in capsule formation and specificity) were combined to allow a determination of probe efficacy, selectivity, and specificity.
A. Primary Assay: Screening for Inhibitors of Bacterial Capsule Biogenesis.
Primary assay: An end-point assay to measure the amount of K1 phage-induced bacterial cell lysis was employed to determine the compound effect on capsule biogenesis. K1 bacteriophage specifically binds the bacterial capsule during the initial stages of infection. Bacteria without capsule cannot be infected and lysed by the bacteriophage. […] A total of 338,740 compounds were screened at 100 μM in the primary screen Inhibition of phage lysis was calculated relative to the mean of the bacterial (positive) control on each microtiter plate. […] For calculation of S/B/Z value, and CV, the following formulae (in which SD stands for standard deviation) were used: S/B=mean signal/mean background; Z=1-3SD of sample+3SD of control mean of sample−mean of control; % CV=(SD mean signal/mean signal)×100.
IC50 values were calculated using a 4 parameter Levenburg-Marquardt algorithm, with the maximum and minimum locked at 0 and 100 respectively.
Primary assay: The primary assay was conducted in the 1,536 well plate format. Bacterial cultures of E. coli K1 strain UTI89 (cystitis isolate) and isogenic capsule mutant strains (as controls for phage infection) were grown and prepared at the screening center immediately prior to use. Overnight starting cultures of UTI89 were grown at 37° C., and inoculated into 1 liter of LB (starting OD600˜0.03), which was sufficient for screening 40 plates (including ˜10% waste) and ˜40,000 compounds as single points.
Control wells contained UTI89 (wt K1) with 0.5% DMSO as a simulated positive control; UTI89 with 0.5% DMSO and tetracycline for a negative growth control; and media plus vehicle control. 50 mL of LB Broth was inoculated with stock 150 μL E. coli UT189 and grown overnight at 37° C. The next day, cultures were diluted 1:75 in 1 L of LB Broth containing 0.5% DMSO. 3 μL of this culture was added to each plate well, and plates were incubated, inverted, at 37° C. for 2 hr. The K1F bacteriophage stock was diluted 1:8 in LB Broth containing 0.5% DMSO, and 1.5 μL of diluted phage (or media only) was added to the pre-plated test compound wells and appropriate control wells. The plates were centrifuged briefly, and then were incubated, inverted, at 37° C. for an additional 2 hr. Afterward, Alamar Blue reagent (Invitrogen, #DAL1100) was diluted 1:2 with LB broth and 1 μL was added to each plate well.

[4] = first round of synthetic analogues

Compound	IC50 ([1]; purchased analogue series)	IC50 [2]	IC50 ([3]; purchased analogue series)	IC50 [1, 4]	IC50 [3, 4]
O=C(Nc1cc(-c2ccccc2)sc1C(=O)O)c1cccs1 [compound 9945365]	6.9 µM	62 µM	75.4 µM		
CCOc1ccc(-c2cc(NC(=O)c3c(F)cccc3F)c(C(=O)OC)s2)cc1 [compound 16012549]		> 300 µM	> 100 µM		
O=C(O)c1sc(-c2ccccc2)cc1NC(=O)C1CCCCC1 [compound 16393057]	65.2 µM	115 µM	> 100 µM		
O=C(O)c1sc(-c2ccccc2)cc1NC(=O)C1CCCC1 [compound 16393058]	56.6 µM	169 µM	> 100 µM		
Cc1c(C(=O)Nc2cc(-c3ccccc3)sc2C(=O)O)oc2ccccc12 [compound 17546661]	33.3 µM	48.7 µM	> 100 µM		
Cc1ccc(C(=O)Nc2cc(-c3ccccc3)sc2C(=O)O)s1 [compound 17546665]	29.7 µM	63.6 µM	> 100 µM		
O=C(Nc1cc(-c2ccccc2)sc1C(=O)O)c1ccc(Cl)s1 [compound 17547200]	15.1 µM	71.5 µM	> 100 µM		
O=C(Nc1cc(-c2ccccc2)sc1C(=O)O)c1cc2ccccc2o1 [compound 17548073]	6.7 µM	167 µM	> 100 µM		
CCOc1ccc(-c2cc(NC(=O)c3cccc(F)c3)c(C(=O)O)s2)cc1 [compound 23602076]		61.3 µM		2.61 µM	14.7 µM
O=C(Nc1cc(-c2ccccc2)sc1C(=O)O)c1cccc(Cl)c1 [compound 23602077]	34.4 µM	43.8 µM	84.5 µM		
CCOc1ccc(-c2cc(NC(=O)c3ccc(OC)c(OC)c3)c(C(=O)O)s2)cc1 [compound 23602082]	8 µM	72.3 µM	57.9 µM		
CCOc1ccc(-c2cc(NC(=O)c3ccc(Br)o3)c(C(=O)O)s2)cc1 [compound 23602086]		68.7 µM		< 0.625 µM	
CCOc1ccc(-c2cc(NC(=O)c3ccc(Br)s3)c(C(=O)O)s2)cc1 [compound 53470415]		49.7 µM		3.33 µM	17 µM
O=C(Nc1cc(-c2ccc(C(F)(F)F)cc2)sc1C(=O)O)c1ccc(Br)o1 [compound 53470416]		47.5 µM		2.59 µM	12.3 µM

— US9688653B2, “Ethoxyphenyl thienyl compounds and methods for the treatment of bacterial infections” (Duke University, priority 2013, dated 2017)
